Test results taken from ChEMBL document CHEMBL3393002, “Diaminopyrimidines, diaminopyridines and diaminopyridazines as histamine H4 receptor modulators” (Bioorg Med Chem Lett, 2015).

Tests used:
Histamine H4 receptor [1] = target: T1, Histamine H4 receptor (Homo sapiens, UniProt Q9H3N8); assay: Agonist activity at human recombinant histamine H4 receptor expressed in SK-N-MC cells assessed as effect on forskolin-stimulated cAMP-mediated reporter gene activity; format: functional, cell-based
Histamine H4 receptor [2] = target: T1, Histamine H4 receptor; assay: Displacement of [3H]histamine from human recombinant histamine H4 receptor
Histamine H4 receptor [3] = target: T1, Histamine H4 receptor; assay: Antagonist activity at human recombinant histamine H4 receptor expressed in SK-N-MC cells assessed as inhibition of forskolin-stimulated cAMP-mediated reporter gene activity; format: functional, cell-based; settings: read-out: pA2 (converted)

T1 sequence (Q9H3N8 whole entry): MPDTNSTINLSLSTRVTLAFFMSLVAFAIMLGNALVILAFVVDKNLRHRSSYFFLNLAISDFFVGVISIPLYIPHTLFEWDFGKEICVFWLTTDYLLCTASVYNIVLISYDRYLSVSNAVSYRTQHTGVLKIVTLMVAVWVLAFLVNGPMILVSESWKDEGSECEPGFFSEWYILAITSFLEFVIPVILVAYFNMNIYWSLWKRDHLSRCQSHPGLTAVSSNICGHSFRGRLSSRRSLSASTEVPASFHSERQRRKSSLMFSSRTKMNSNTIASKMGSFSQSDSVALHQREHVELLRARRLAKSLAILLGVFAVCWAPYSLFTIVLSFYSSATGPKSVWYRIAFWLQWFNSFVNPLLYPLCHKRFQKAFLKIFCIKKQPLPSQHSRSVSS

`CN[C@@H]1CCN(c2ccnc(NC(C)C)n2)C1` was tested, and the EC50 (Histamine H4 receptor [1]) was 25 nM and the Ki (Histamine H4 receptor [2]) was 8 nM.
`CN[C@@H]1CCN(c2ccnc(NC(C)C)c2)C1` gave an EC50 (Histamine H4 receptor [1]) of 3160 nM.
Compound `CN1CCN(c2ccnc(-c3ccsc3)c2)CC1` has a Ki (Histamine H4 receptor [2]) of 21 nM.
`CN[C@@H]1CCN(c2ccnc(-c3ccsc3)c2)C1` was tested, and the Ki (Histamine H4 receptor [2]) was 216 nM.
`CN1CCN(c2ccnc(N3CCCCC3)c2)CC1` gave a Ki (Histamine H4 receptor [2]) of 142 nM.
`CN[C@@H]1CCN(c2ccnc(N3CCCCC3)c2)C1` showed a Ki (Histamine H4 receptor [2]) of 97 nM.
`CCCCNc1cc(N2CCN(C)CC2)ccn1` gave a Ki (Histamine H4 receptor [2]) of 176 nM.
`CCCCNc1cc(N2CC[C@@H](NC)C2)ccn1` gave an EC50 (Histamine H4 receptor [1]) of 48 nM and a Ki (Histamine H4 receptor [2]) of 7 nM.
With `CCCCNc1cc(N2CC[C@H](NC)C2)ccn1` the Ki (Histamine H4 receptor [2]) was 109 nM.
`CN1CCN(c2ccnc(NC3CCCC3)c2)CC1` was tested, and the Ki (Histamine H4 receptor [2]) was 16 nM.
`CN[C@@H]1CCN(c2ccnc(NC3CC4CCC3C4)c2)C1` (stereo partly specified) was tested, and the Kb (Histamine H4 receptor [3]) was 6.31 nM and the EC50 (Histamine H4 receptor [1]) was > 10000 nM.
`CN[C@H]1CCN(c2ccnc(NC3CC4CCC3C4)c2)C1` (stereo partly specified) was tested, and the EC50 (Histamine H4 receptor [1]) was > 10000 nM and the Ki (Histamine H4 receptor [2]) was 6 nM.
`CC(C)Nc1nccc(N2CCN(C)CC2)n1` showed an EC50 (Histamine H4 receptor [1]) of 112 nM and a Ki (Histamine H4 receptor [2]) of 117 nM.
`CN[C@H]1CCN(c2ccnc(NC(C)C)n2)C1` gave a Ki (Histamine H4 receptor [2]) of 118 nM.
Work on `CC(C)CNc1nccc(N2CCN(C)CC2)n1` yielded an EC50 (Histamine H4 receptor [1]) of 84 nM.
With `CCCCNc1nccc(N2CCN(C)CC2)n1` the EC50 (Histamine H4 receptor [1]) was 91 nM and the Ki (Histamine H4 receptor [2]) was 55 nM.
Work on `CCCCNc1nccc(N2CC[C@@H](NC)C2)n1` yielded an EC50 (Histamine H4 receptor [1]) of 4 nM and a Ki (Histamine H4 receptor [2]) of 3 nM.
`CN1CCN(c2ccnc(NC3CCCC3)n2)CC1` was tested, and the EC50 (Histamine H4 receptor [1]) was 75 nM and the Ki (Histamine H4 receptor [2]) was 63 nM.
For `CN1CCN(c2ccnc(NC3CC4CCC3C4)n2)CC1` (stereo unspecified), the EC50 (Histamine H4 receptor [1]) was 20 nM.
`CN[C@@H]1CCN(c2ccnc(NC3CC4CCC3C4)n2)C1` (stereo partly specified) gave a Kb (Histamine H4 receptor [3]) of 79.4 nM, an EC50 (Histamine H4 receptor [1]) of 3160 nM and a Ki (Histamine H4 receptor [2]) of 0.8 nM.
With `CN[C@H]1CCN(c2ccnc(NC3CC4CCC3C4)n2)C1` (stereo partly specified) the EC50 (Histamine H4 receptor [1]) was > 10000 nM and the Ki (Histamine H4 receptor [2]) was 8 nM.
Work on `CC(C)CNc1cc(N2CCN(C)CC2)cnn1` yielded a Ki (Histamine H4 receptor [2]) of 10000 nM.
`CN[C@@H]1CCN(c2cnnc(NCC(C)C)c2)C1` gave an EC50 (Histamine H4 receptor [1]) of 3160 nM and a Ki (Histamine H4 receptor [2]) of 55 nM.
`CN[C@H]1CCN(c2cnnc(NCC(C)C)c2)C1` was tested, and the Ki (Histamine H4 receptor [2]) was 389 nM.
`CN[C@@H]1CCN(c2cnnc(NC3CCCC3)c2)C1` gave a Kb (Histamine H4 receptor [3]) of 10 nM and a Ki (Histamine H4 receptor [2]) of 6 nM.
For `CN[C@H]1CCN(c2cnnc(NC3CCCC3)c2)C1`, the Ki (Histamine H4 receptor [2]) was 240 nM.
`CN1CCN(c2cnnc(NC3CC4CCC3C4)c2)CC1` (stereo unspecified) was tested, and the Ki (Histamine H4 receptor [2]) was 365 nM.
Work on `CC(C)c1cc(N2CC[C@@H](N)C2)nc(N)n1` [JNJ-39758979] yielded a Ki (Histamine H4 receptor [2]) of 12 nM.
